# Data as given in publication PMC10249896, “AI-Assisted chemical probe discovery for the understudied Calcium-Calmodulin Dependent Kinase, PNCK” (PLOS Computational Biology, 2023).
# Several values for one entry are separate records, joined by “and”; a condition that tells them apart may be missing. Equal entries are not always repeated.
# Molecular target: T1, PNCK Nano-luciferase fusion (Homo sapiens, UniProt Q6P2M8)
# T1 construct: host or cells: HEK293
# Experiment: NanoBRET Target Engagement Intracellular Kinase Assay, cell-based PNCK binding screen and dose response in HEK293 cells
# Conditions: for inhibition at 1 µM: compound 1uM, read-out: Avg. Normalized % Inhibition, 1uM, Nanobret; for inhibition at 1 µM / inhibition at 10 µM / IC50: HEK293; for inhibition at 1 µM / inhibition at 10 µM: K10 tracer 1uM, normalized to staurosporine and DMSO; for inhibition at 10 µM: compound 10uM, read-out: Avg. Normalized % Inhibition, 10uM, Nanobret; for cell permeability: stated on testing in NanoBRET assay; for IC50: 8-point concentration-response
# Description: The NanoBRET Target Engagement Intracellular Kinase Assay (Promega N2520) is a cell-based binding screen which reads loss of BRET signal as a result of target binding. A PNCK Nano-luciferase fusion vector plasmid was generated custom by Promega. The K-10 tracer was used for the assay, as determined by Promega. The plasmid was maxiprepped by Genewiz for use in all future assays. HEK293 cells were seeded in a T175 flask in DMEM with 10% FBS. The following day, cells were counted to 10,000, resuspended in assay media (Optimem with no phenol red, 1% FBS). Plasmid and transfection reagent (Fugene HD, Promega E2311) were added to the mixture and cells were seeded in a white 96-well plate. After 20–24 hours, media was changed, and the assay proceeded according to protocol. K10 tracer was added at the recommended concentration of 1uM while compounds were initially screened at both 10uM and 1uM. Cells incubated with compound at 37 degrees Celsius for a maximum of 2 hours before the plate was read using Clariostar Plus. Data was normalized to Staurosporine and DMSO controls. For compounds selected for further analysis, dose response curves were generated using the same testing protocol but at 8 different concentrations: 24uM, 12uM, 6uM, 3uM, 1.5uM, .75uM 0.375uM and 0.1875uM. UM195 was tested with concentrations from 12uM to 0.09375. Similarly, compounds from the analog by catalog analysis were tested at concentrations from 24uM to 0.1875uM.
# Data analysis of ADP Kinase Glo results were carried out per the manufacturer’s instructions. Results were represented as a percent decrease in activity. Data was normalized to staurosporine (positive control) as 100% decrease and DMSO (negative control) as a 0% decrease. Data for NanoBRET was analyzed by dividing the acceptor by the donor emission and […] to obtain raw millibret units (mBU). Background was subtracted using control emission averages. Data was normalized to positive and negative controls of staurosporine and DMSO. Concentration-response curves were plotted in GraphPad Prism 8 and IC50s were extrapolated using non-linear fit with concentrations transformed to logarithmic scale. Baseline was held constant and represented the average mBU of staurosporine controls while the top was constrained to represent the average mBU of DMSO controls. Error bars on dose-response curves represent standard deviations.
# T1 sequence (Q6P2M8 whole entry, the tested form may be a part): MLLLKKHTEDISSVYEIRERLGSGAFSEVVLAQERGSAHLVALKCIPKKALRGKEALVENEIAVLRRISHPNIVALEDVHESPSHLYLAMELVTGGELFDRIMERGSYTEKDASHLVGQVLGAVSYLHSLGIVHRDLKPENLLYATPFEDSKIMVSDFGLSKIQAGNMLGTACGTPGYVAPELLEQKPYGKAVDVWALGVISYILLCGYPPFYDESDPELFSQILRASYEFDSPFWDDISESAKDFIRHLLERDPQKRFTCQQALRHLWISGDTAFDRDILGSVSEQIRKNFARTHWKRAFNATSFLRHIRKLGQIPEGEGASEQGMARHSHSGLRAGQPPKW
SMILES,inhibition at 1 µM,inhibition at 10 µM,also measured
Nn1c(SCc2ccc(Br)cc2)nnc(CCC(=O)O)c1=O [UM_192],0%,0%,cell permeability: not cell permeable
O=C(O)CCc1nnc(SCc2c(Cl)cccc2Cl)[nH]c1=O [UM_193],0%,0%,cell permeability: not cell permeable
Cc1nc(N2CCC[C@H]3C(=O)NC[C@H]32)c2c(C)c(C)sc2n1 [UM_194],1.43%,27.6%,
"N#Cc1cnc(Sc2nnc(-c3cccc4ccccc34)o2)cn1 [UM_195, 5-[5-(naphthalen-1-yl)-1,3,4-oxadiazol-2-yl]sulfanylpyrazine-2-carbonitrile]",22.1%,100%,"IC50: 3.36 µM; Dose-Response Curve Data (NanoBRET signal, replicates) (Concentration 1.20E-05 M): 5.32 and 5.59 and 5.20; Dose-Response Curve Data (NanoBRET signal, replicates) (Concentration 1.50E-06 M): 7.80 and 7.94 and 7.90; Dose-Response Curve Data (NanoBRET signal, replicates) (Concentration 1.88E-07 M): 9.08 and 9.29 and 8.92; Dose-Response Curve Data (NanoBRET signal, replicates) (Concentration 3.00E-06 M): 7.45 and 6.56 and 7.25; Dose-Response Curve Data (NanoBRET signal, replicates) (Concentration 3.75E-07 M): 9.32 and 8.97 and 9.18; Dose-Response Curve Data (NanoBRET signal, replicates) (Concentration 6.00E-06 M): 5.79 and 6.12 (2×); Dose-Response Curve Data (NanoBRET signal, replicates) (Concentration 7.50E-07 M): 8.84 and 8.55 and 8.27; Dose-Response Curve Data (NanoBRET signal, replicates) (Concentration 9.38E-08 M): 9.33 and 9.39 and 8.87"
COc1ccc2[nH]c(SCc3cc(=O)n4c(C)cccc4n3)nc2c1 [UM_196],3.82%,30.5%,
Cc1ccc2[nH]c(SCc3cc(=O)n4ccccc4n3)nc2c1 [UM_197],1.23%,27%,
Cc1ccnc2nc(C(=O)OCC(=O)c3ccc(Cl)cc3Cl)nn12 [UM_198],2.17%,22.7%,
Cn1cnn(CN2CCN(c3ccc(O)cc3)CC2)c1=S [UM_199],0%,16.9%,
COc1ccc2c(O)c(C(=O)N(C)Cc3c(C)noc3C)cnc2c1 [UM_200],0%,17.7%,
Cc1cc(C)n2nc(SCc3cc(=O)n4cc(Br)ccc4n3)nc2n1 [UM_201],3.26%,30.8%,
c1ccc2c(c1)ccn2CCc1nc(-c2cnccn2)no1 [UM_202],0%,21.5%,
O=C(O)c1cccc(S(=O)(=O)Nc2nc3ccc(Cl)cc3s2)c1 [UM_203],5.12%,22.7%,
O=c1[nH]c(-c2ccc(-n3cccn3)nc2)nc2sc3ccccc3c12 [UM_208],5.94%,87.8%,
Clc1nc(-c2cccnc2)nc2sc3c(c12)CCCC3 [UM_209],5.53%,55.3%,
"O=c1[nH]c(CSc2ccc3ccccc3n2)nc2ccc(Cl)cc12 [UM_210, 6-chloro-2-[(quinolin-2-ylsulfanyl)methyl]-3,4-dihydroquinazolin-4-one]",41.2%,98.5%,"IC50: 8.09 µM; Dose-Response Curve Data (NanoBRET signal, replicates) (Concentration 1.20E-05 M): 7.35 and 5.53 and 7.51 and 6.90; Dose-Response Curve Data (NanoBRET signal, replicates) (Concentration 1.50E-06 M): 8.14 and 8.22 and 8.79 and 8.09; Dose-Response Curve Data (NanoBRET signal, replicates) (Concentration 1.88E-07 M): 8.61 and 9.43 and 9.50 and 8.74; Dose-Response Curve Data (NanoBRET signal, replicates) (Concentration 2.40E-05 M): 4.79 and 5.28 and 5.02 and 4.59; Dose-Response Curve Data (NanoBRET signal, replicates) (Concentration 3.00E-06 M): 7.91 and 7.57 and 6.47 and 7.46; Dose-Response Curve Data (NanoBRET signal, replicates) (Concentration 3.75E-07 M): 9.79 and 9.21 and 8.99 and 8.71; Dose-Response Curve Data (NanoBRET signal, replicates) (Concentration 6.00E-06 M): 7.06 and 7.86 and 6.98 and 6.97; Dose-Response Curve Data (NanoBRET signal, replicates) (Concentration 7.50E-07 M): 8.34 and 8.97 and 8.05 and 9.09"
Cc1[nH]ccc1C(=O)NC1CCC(N2C(=O)CCC2=O)CC1 (stereo not shown) [UM_211],0%,0%,
O=C(c1c(F)cc(F)cc1F)C1CCN(C(=O)c2ccnnc2)CC1 [UM_212],0%,49.9%,
"O=C(COc1ccc2c3c(c(=O)oc2c1)CCCCC3)N1CCc2ccccc21 [UM_213, 3-[2-(2,3-dihydro-1H-indol-1-yl)-2-oxoethoxy]-6H,7H,8H,9H,10H,11H-cyclohepta [c]chromen-6-one]",56.7%,91.5%,"IC50: 9.49 µM; Dose-Response Curve Data (NanoBRET signal, replicates) (Concentration 1.20E-05 M): 7.35 and 7.43 (2×); Dose-Response Curve Data (NanoBRET signal, replicates) (Concentration 1.50E-06 M): 8.59 and 8.87 and 8.44; Dose-Response Curve Data (NanoBRET signal, replicates) (Concentration 1.88E-07 M): 8.66 and 8.93 and 8.52; Dose-Response Curve Data (NanoBRET signal, replicates) (Concentration 2.40E-05 M): 6.31 and 6.47 and 6.34; Dose-Response Curve Data (NanoBRET signal, replicates) (Concentration 3.00E-06 M): 8.12 and 8.73 and 8.41; Dose-Response Curve Data (NanoBRET signal, replicates) (Concentration 3.75E-07 M): 8.92 and 8.51 and 8.71; Dose-Response Curve Data (NanoBRET signal, replicates) (Concentration 6.00E-06 M): 8.04 and 8.33 and 8.32; Dose-Response Curve Data (NanoBRET signal, replicates) (Concentration 7.50E-07 M): 8.68 and 8.62 and 8.88"
Cn1cnnc1SCc1nc(N)c2c3c(sc2n1)CCCC3 [UM_214],27.2%,62.3%,
O=C1CCCCCN1CCc1nc(-c2cccnn2)no1 [UM_242],,,cell permeability: not cell permeable
O=C(CSc1ncccn1)c1ccc(O)c(O)c1 [UM_243],,,cell permeability: not cell permeable

# Further lines, with some results ahead:
inhibition at 1 µM,inhibition at 10 µM,SMILES,also measured
0%,19.4%,Cc1noc2ncnc(N3CCC(n4c(C)nc5ccccc54)CC3)c12 [UM_215],
2.34%,25.4%,O=C(O)c1cccnc1SCCCN1C(=O)c2cccc3cccc(c23)C1=O [UM_216],
10.5%,49.3%,Cc1cc(C)n2nc(SCc3nc(-c4ccccc4)no3)nc2n1 [UM_217],
16.7%,61.2%,Cc1cc(C)n2nc(SCc3nc4ccccc4s3)nc2n1 [UM_218],
0.98%,31.1%,NC(=O)Cn1cnc2cc(-c3ccc(Cl)cc3)sc2c1=O [UM_219],
1.68%,27.1%,Clc1nc(CN2CCCCC2)nc2sc3c(c12)CCC3 [UM_220],
0%,14.7%,Cc1cc(NC(=O)[C@@H]2CCO[C@H]2c2nccn2C)nnc1C [UM_221],
28%,71.1%,NC(=O)Nc1cccc(C(=O)Nc2cc3c(cc2Br)OCCO3)c1 [UM_222],
17%,44.6%,Cn1c(=O)n(C(N)=O)c(=O)c2c1nc1n2CCCN1c1ccc(F)cc1 [UM_223],
18%,33.3%,CN(CC(=O)NC(C)(C)C)Cn1nc2c3c(cccc31)C(=O)c1ccccc1-2 [UM_224],
21.7%,47.7%,Cc1nc2c(sc3nc(N4CCOCC4)c4c(c32)CC(C)(C)OC4)c(=O)o1 [UM_225],
21.8%,51.6%,O=c1oc2cc(OC3OC(CO)C(O)C(O)C3O)c(Cl)cc2c2c1CCCC2 (stereo not shown) [UM_226],
22.4%,49.4%,CCOCCn1c(CN2CCN(CC)CC2)nc2c1c(O)nc(=O)n2C [UM_227],
35.2%,97.6%,"C[C@@H]1CCc2c(sc(NC(=O)c3ccc(Cl)s3)c2C(N)=O)C1 [UM_228, (6R)-2-(5-chlorothiophene-2-amido)-6-methyl-4,5,6,7-tetrahydro-1-benzothiophene-3-carboxamide]","IC50: 8.32 µM; Dose-Response Curve Data (NanoBRET signal, replicates) (Concentration 1.20E-05 M): 6.59 and 6.36 and 6.71; Dose-Response Curve Data (NanoBRET signal, replicates) (Concentration 1.50E-06 M): 8.32 and 8.64 and 8.50; Dose-Response Curve Data (NanoBRET signal, replicates) (Concentration 1.88E-07 M): 8.44 and 8.73 and 8.35; Dose-Response Curve Data (NanoBRET signal, replicates) (Concentration 2.40E-05 M): 5.75 and 5.50 and 5.61; Dose-Response Curve Data (NanoBRET signal, replicates) (Concentration 3.00E-06 M): 8.33 and 8.45 and 7.70; Dose-Response Curve Data (NanoBRET signal, replicates) (Concentration 3.75E-07 M): 8.86 and 8.18 and 8.92; Dose-Response Curve Data (NanoBRET signal, replicates) (Concentration 6.00E-06 M): 7.13 and 7.60 and 7.05; Dose-Response Curve Data (NanoBRET signal, replicates) (Concentration 7.50E-07 M): 8.73 and 8.94 and 8.43"
27.5%,54%,COc1cccc(-c2nc3c(c(=O)[nH]2)Cc2cc(Br)ccc2O3)c1O [UM_229],
21.2%,55.1%,COc1cccc(-n2nnc3c(=O)n(CC(=O)N4CCCC4)cnc32)c1 [UM_230],
25.9%,46.3%,Cc1nc2c(c(=O)[nH]1)CCN(Cc1cc3ccccc3n(C)c1=O)CC2 [UM_231],
1.49%,10.9%,O=C1CCCc2c1cnc1nc(N3CCCCC3)nc(O)c21 [UM_232],
7.37%,14.2%,O=C(O)c1ccc(-c2nc(O)c3c4c(sc3n2)CCCC4)cc1 [UM_233],
4.02%,10.3%,O=C(O)c1cccc(NS(=O)(=O)/C=C/c2ccc(Cl)cc2)c1 [UM_235],
